Assay results published in ChEMBL document CHEMBL5550206, “Identification of 6-Fluorine-Substituted Coumarin Analogues as POLRMT Inhibitors with High Potency and Safety for Treatment of Pancreatic Cancer” (J Med Chem, 2024).
Calls of active or inactive are those of the source. The rule behind the calls is not given here.

How the values were obtained:
[1] = target: DNA-directed RNA polymerase, mitochondrial (Homo sapiens) (UniProt O00411); experiment: Inhibition of human POLRMT in human MIA PaCa-2 cells assessed as mitochondria coded ubiquinone oxidoreductase core subunit 1 (ND I) transcript level at 500 nM measured after 24 hrs by RT-qPCR analysis relative to control; design: scale not given: the % may be the effect or the level left
DNA-directed RNA polymerase, mitochondrial (Homo sapiens), sequence (O00411 whole entry): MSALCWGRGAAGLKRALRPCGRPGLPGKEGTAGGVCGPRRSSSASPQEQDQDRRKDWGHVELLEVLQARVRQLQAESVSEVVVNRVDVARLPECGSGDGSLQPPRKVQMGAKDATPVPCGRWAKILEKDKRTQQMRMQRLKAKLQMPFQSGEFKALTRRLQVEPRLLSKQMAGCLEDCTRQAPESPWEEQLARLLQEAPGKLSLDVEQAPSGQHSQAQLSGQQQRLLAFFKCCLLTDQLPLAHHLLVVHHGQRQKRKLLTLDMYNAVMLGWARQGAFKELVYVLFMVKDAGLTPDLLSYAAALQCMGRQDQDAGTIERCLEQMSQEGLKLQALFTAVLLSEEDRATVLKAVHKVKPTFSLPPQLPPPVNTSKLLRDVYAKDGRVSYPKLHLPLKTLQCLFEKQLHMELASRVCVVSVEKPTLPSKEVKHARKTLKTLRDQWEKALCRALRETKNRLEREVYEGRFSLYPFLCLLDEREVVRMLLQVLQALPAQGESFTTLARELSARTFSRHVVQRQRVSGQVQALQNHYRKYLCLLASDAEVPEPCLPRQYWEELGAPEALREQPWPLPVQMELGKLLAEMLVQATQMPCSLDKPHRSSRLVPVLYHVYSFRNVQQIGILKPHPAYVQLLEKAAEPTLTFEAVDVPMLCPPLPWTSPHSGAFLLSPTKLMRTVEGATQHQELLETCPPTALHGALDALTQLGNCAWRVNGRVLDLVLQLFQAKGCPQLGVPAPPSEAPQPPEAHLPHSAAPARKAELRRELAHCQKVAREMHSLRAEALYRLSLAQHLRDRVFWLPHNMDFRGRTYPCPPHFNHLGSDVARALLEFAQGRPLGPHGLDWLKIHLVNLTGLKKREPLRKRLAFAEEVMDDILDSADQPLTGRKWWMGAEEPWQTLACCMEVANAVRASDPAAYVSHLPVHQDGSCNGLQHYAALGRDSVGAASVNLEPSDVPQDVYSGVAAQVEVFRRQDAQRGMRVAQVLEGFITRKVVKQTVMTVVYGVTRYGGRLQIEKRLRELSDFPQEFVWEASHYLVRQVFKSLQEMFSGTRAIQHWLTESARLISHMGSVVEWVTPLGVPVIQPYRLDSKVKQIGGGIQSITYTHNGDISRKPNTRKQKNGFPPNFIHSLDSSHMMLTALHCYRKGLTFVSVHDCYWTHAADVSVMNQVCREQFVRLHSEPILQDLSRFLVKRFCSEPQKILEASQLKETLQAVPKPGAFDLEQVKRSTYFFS

MIA PaCa-2 [2] = experiment: Antiproliferative activity against human MIA PaCa-2 cells assessed as cell viability measured after 168 hrs incubation by SRB assay; type: functional, cell-based; conditions: MIA PaCa-2, 168 h
MIA PaCa-2 [3] = experiment: Potency index, ratio of IMT1B IC50 to test compound […] for antiproliferative activity against human MIA PaCa-2 cells assessed as cell viability measured after 168 hrs incubation by SRB assay; type: functional
MIA PaCa-2 [4] = experiment: Effect on mitochondrial membrane potential loss in human MIA PaCa-2 cells assessed as change in membrane potential at 0.1 to 5 uM incubated for 96 hrs by JC-1 staining based flow cytometry analysis; type: functional, cell-based; conditions: dose 0.1-5 µM
MIA PaCa-2 [5] = experiment: Induction of intracellular ROS generation in human MIA PaCa-2 cells at 0.1 to 5 uM incubated for 96 hrs by DCFH-DA staining based flow cytometry; type: functional, cell-based; conditions: dose 0.1-5 µM
MIA PaCa-2 [6] = experiment: Reduction in number of mitochondria in human MIA PaCa-2 cells measured after 96 hrs by Mito-Tracker Green and DAPI staining based assay; type: functional, cell-based; conditions: dose 10-1000 nM
[7] = Antiproliferative activity against human […] cells assessed as cell viability measured after 168 hrs incubation by SRB assay; type: functional, cell-based
PANC-1 = experiment: Antiproliferative activity against human PANC-1 cells assessed as cell viability measured after 168 hrs incubation by SRB assay; type: functional, cell-based; conditions: PANC-1, 168 h
CAPAN-1 = experiment: Antiproliferative activity against human CAPAN-1 cells assessed as cell viability measured after 168 hrs incubation by SRB assay; type: functional, cell-based; conditions: CAPAN-1, 168 h
[8] = Antiproliferative activity against HUVEC cells assessed as cell viability measured after 168 hrs incubation by SRB assay; type: toxicity, cell-based; conditions: human
MIA PaCa-2 [9] = experiment: In vivo antitumor activity against human MIA PaCa-2 cells xenografted in BALB/c mouse assessed as reduction in tumor weight at 100 mg/kg, iv once daily for 25 consecutive day after 2 weeks of cells injection relative to control; type: functional; conditions: MIA PaCa-2, 600 h, time 25 day
[10] = Toxicity in BALB/c mouse xenografted with human MIA PaCa-2 cells assessed as pathological change in liver at 100 mg/kg, iv once daily for 25 consecutive day after 2 weeks of cells injection by H and E staining based optical microscopic analysis; type: organism-based; conditions: in vivo, 336 h
[11] = Toxicity in BALB/c mouse xenografted with human MIA PaCa-2 cells assessed as pathological change in spleen at 100 mg/kg, iv once daily for 25 consecutive day after 2 weeks of cells injection by H and E staining based optical microscopic analysis; type: organism-based; conditions: in vivo, 336 h
[12] = Toxicity in BALB/c mouse xenografted with human MIA PaCa-2 cells assessed as pathological change in lung at 100 mg/kg, iv once daily for 25 consecutive day after 2 weeks of cells injection by H and E staining based optical microscopic analysis; type: organism-based; conditions: in vivo, 336 h
[13] = Toxicity in BALB/c mouse xenografted with human MIA PaCa-2 cells assessed as pathological change in kidney at 100 mg/kg, iv once daily for 25 consecutive day after 2 weeks of cells injection by H and E staining based optical microscopic analysis; type: organism-based; conditions: in vivo, 336 h
[14] = Toxicity in BALB/c mouse xenografted with human MIA PaCa-2 cells assessed as pathological change in heart at 100 mg/kg, iv once daily for 25 consecutive day after 2 weeks of cells injection by H and E staining based optical microscopic analysis; type: organism-based; conditions: in vivo, 336 h

Row | Compound | Activity [1] | IC50 (MIA PaCa-2 [2]) | also measured
1 | CCN(CC)C(=O)[C@@H](C)Oc1cc2oc(=O)cc(-c3ccccc3OC)c2cc1F | 48% | 1130 nM | 
2 | C[C@@H](Oc1cc2oc(=O)cc(-c3ccc(F)cc3Cl)c2cc1F)C(=O)NCC(F)F | 22% | 139 nM | 
3 | C[C@@H](Oc1cc2oc(=O)cc(-c3ccc(F)cc3Cl)c2cc1F)C(=O)N(C)C | 25% | 171 nM | 
4 | C[C@@H](Oc1cc2oc(=O)cc(-c3ccc(F)cc3Cl)c2cc1F)C(=O)N(C)C1COC1 | 50% | 1690 nM | 
5 | C[C@@H](Oc1ccc2c(-c3ccc(F)cc3Cl)cc(=O)oc2c1Cl)C(=O)N1CCC[C@H](C(=O)O)C1 | 119% | > 5000 nM | 
6 | C[C@@H](Oc1cc2oc(=O)cc(-c3ccc(F)cc3Cl)c2cc1F)C(=O)N1CCC[C@H](C(=O)O)C1 | 22% | 145 nM | 
7 | COc1cc2c(-c3ccc(F)cc3Cl)cc(=O)oc2cc1O[C@H](C)C(=O)N1CCC[C@H](C(=O)O)C1 | 67% | > 5000 nM | 
8 | C[C@@H](Oc1cc2oc(=O)cc(-c3ccc(F)cc3Cl)c2cc1F)C(=O)N1CCC(F)CC1 | 19% | 115 nM | 
9 | CCN(CC)C(=O)[C@@H](C)Oc1cc2oc(=O)cc(-c3ccc(Cl)cc3)c2cc1F | 55% | 2240 nM | 
10 | C[C@@H](Oc1cc(Cl)c2c(-c3ccc(F)cc3Cl)cc(=O)oc2c1)C(=O)N1CCC[C@H](C(=O)O)C1 | 85% | > 5000 nM | 
11 | CCN(CC)C(=O)[C@@H](C)Oc1cc2oc(=O)cc(-c3ccc(F)cc3Cl)c2cc1F | 13% | 44 nM | Ratio IC50 (MIA PaCa-2 [3]): 3
12 | C[C@@H](Oc1cc2oc(=O)cc(-c3ccc(F)cc3Cl)c2cc1F)C(=O)N1CCCCC1 | 16% | 78 nM | 
13 | CCN(CC)C(=O)[C@@H](C)Oc1cc2oc(=O)cc(-c3ccccc3F)c2cc1F | 30% | 400 nM | 
14 | C[C@@H](Oc1ccc2c(-c3ccc(F)cc3Cl)cc(=O)oc2c1)C(=O)N1CCC[C@H](C(=O)O)C1 | 23% | 159 nM | Activity (MIA PaCa-2 [4]): inactive; Activity (MIA PaCa-2 [5]): inactive; Activity (MIA PaCa-2 [6]): Dose-Dependent Effect; IC50 [7]: 67 nM; IC50 (PANC-1): 1570 nM; IC50 (CAPAN-1): 1350 nM; IC50 at 168 h [8]: > 50000 nM; inhibition in vivo at 100 mg/kg (MIA PaCa-2 [9]): 44.8%; Activity [10]: Non-Toxic; Activity [11]: Non-Toxic; Activity [12]: Non-Toxic; Activity [13]: Non-Toxic; Activity [14]: Non-Toxic
15 | C[C@@H](Oc1cc2oc(=O)cc(-c3ccc(F)cc3Cl)c2cc1F)C(=O)N1CCCC1 | 35% | 456 nM | 
16 | CC1CCN(C(=O)[C@@H](C)Oc2cc3oc(=O)cc(-c4ccc(F)cc4Cl)c3cc2F)CC1 | 31% | 486 nM | 
17 | CCN(CC)C(=O)[C@@H](C)Oc1cc2oc(=O)cc(-c3cccc(Cl)c3)c2cc1F | 60% | 3240 nM | 
18 | C[C@@H](Oc1cc2oc(=O)cc(-c3ccc(F)cc3Cl)c2cc1F)C(=O)N1CCCC(C#N)C1 (stereo partly drawn) | 26% | 305 nM | 
19 | CCN(CC)C(=O)[C@@H](C)Oc1cc2oc(=O)cc(-c3cccc4ccccc34)c2cc1F | 42% | 739 nM | 
20 | C[C@@H](Oc1cc2oc(=O)cc(-c3ccc(F)cc3Cl)c2cc1F)C(=O)N1CCC(F)(F)CC1 | 28% | 377 nM | 
21 | C[C@@H](Oc1cc2oc(=O)cc(-c3ccc(F)cc3Cl)c2cc1F)C(=O)N1CCC(Cl)CC1 | 34% | 523 nM | 
22 | C[C@@H](Oc1cc2oc(=O)cc(-c3ccc(F)cc3Cl)c2cc1F)C(=O)NCC1CC1 | 26% | 294 nM | 
23 | CC(C)c1cc2c(-c3ccc(F)cc3Cl)cc(=O)oc2cc1O[C@H](C)C(=O)N1CCC[C@H](C(=O)O)C1 | 46% | 1090 nM | 
24 | C[C@@H](Oc1cc2oc(=O)cc(-c3ccc(F)cc3Cl)c2cc1F)C(=O)NCCC#N | 51% | 1160 nM | 
25 | CCN(CC)C(=O)[C@@H](C)Oc1cc2oc(=O)cc(-c3ccccc3Cl)c2cc1F | 10% | 14 nM | 
26 | C[C@@H](Oc1cc2oc(=O)cc(-c3ccc(F)cc3Cl)c2cc1F)C(=O)N1CCC1 | 33% | 493 nM | 
27 | CCN(CC)C(=O)[C@@H](C)Oc1cc2oc(=O)cc(-c3ccccc3)c2cc1F | 44% | 682 nM | 
28 | C[C@@H](Oc1cc2oc(=O)cc(-c3ccc(F)cc3Cl)c2cc1F)C(=O)N1CCCOCC1 | 15% | 72 nM | 
29 | C[C@@H](Oc1cc2oc(=O)cc(-c3ccc(F)cc3Cl)c2cc1Cl)C(=O)N1CCC[C@H](C(=O)O)C1 | 30% |  | 
30 | CO[C@H]1CC[C@@H](NC(=O)[C@@H](C)Oc2cc3oc(=O)cc(-c4ccc(F)cc4Cl)c3cc2F)CC1 | 52% | 2230 nM | 
